Data published in ChEMBL document CHEMBL5042512 (Eur J Med Chem, 2022).
The source made the active and inactive calls. No cut-off for these calls is given here.

Key:
KYSE-30 [1] = experiment: Induction of mitochondrial membrane potential loss in human KYSE-30 cells assessed as Mcl-1 expression at 80 to 100 nM measured after 48 hrs by western blot analysis; assay type: functional, cell-based; conditions: dose 80-100 nM
KYSE-30 [2] = experiment: Down regulation of CDK1 protein expression in human KYSE-30 cells at 80 to 100 nM for 48 hrs by western blot analysis; assay type: functional, cell-based; conditions: dose 80-100 nM
KYSE-450 [3] = experiment: Down regulation of p-wee1 protein expression in human KYSE-450 cells at 80 to 100 nM for 48 hrs by western blot analysis; assay type: functional, cell-based; conditions: dose 80-100 nM
KYSE-30 [4] = experiment: Induction of mitochondrial membrane potential loss in human KYSE-30 cells assessed as mitochondrial depolarization at 80 to 100 nM measured after 48 hrs by JCI staining based flow cytometry; assay type: functional, cell-based; conditions: dose 80-100 nM
MGC-803 = experiment: Antiproliferative activity against human MGC-803 cells assessed as cell growth inhibition measured after 48 hrs by CCK8 assay; assay type: functional, cell-based; conditions: MGC-803, 48 h
KYSE-30 [5] = experiment: Induction of cell cycle arrest in human KYSE-30 cells assessed as accumulation at G2/M phase at 100 nM measured after 48 hrs by flow cytometry analysis (reference value: 19.38 %); assay type: functional
KYSE-450 [6] = experiment: Induction of mitochondrial membrane potential loss in human KYSE-450 cells assessed as mitochondrial depolarization at 80 to 100 nM measured after 48 hrs by JCI staining based flow cytometry; assay type: functional, cell-based; conditions: dose 80-100 nM
KYSE-30 [7] = experiment: Antiproliferative activity against human KYSE-30 cells assessed as cell viability measured after 48 hrs by CCK8 assay; assay type: functional, cell-based; conditions: KYSE-30, 48 h
KYSE-450 [8] = experiment: Induction of mitochondrial membrane potential loss in human KYSE-450 cells assessed as downregulation of Bcl-2 protein at 80 to 100 nM measured after 48 hrs by western blot analysis; assay type: functional, cell-based; conditions: dose 80-100 nM
KYSE-30 [9] = experiment: Antiproliferative activity against human KYSE-30 cells assessed as inhibition of colony formation at 40 to 60 nM for 7 days by crystal violet staining based analysis; assay type: functional, cell-based; conditions: dose 40-60 nM, time 7.0 day
KYSE-450 [10] = experiment: Induction of mitochondrial membrane potential loss in human KYSE-450 cells assessed as Bak expression at 80 to 100 nM measured after 48 hrs by western blot analysis; assay type: functional, cell-based; conditions: dose 80-100 nM
Sus scrofa = species on record: Sus scrofa; experiment: Inhibition of pig brain tubulin polymerization at 3 uM by spectrophotometry

Question: For `COc1ccc(CN(C(=O)CSC(=S)N2CCN(C(=O)OC(C)(C)C)CC2)c2cc(OC)c(OC)c(OC)c2)cc1O`, which Activity (KYSE-30 [1]) is on record?
Answer: The Activity was “inactive”.

Question: And the Activity (KYSE-30 [2])?
Answer: The Activity was “Dose-Dependent Effect”.

Question: What about the Activity (KYSE-450 [3]) of the same compound?
Answer: The Activity was “Dose-Dependent Effect”.

Question: What about the Activity (KYSE-30 [4]) of the same compound?
Answer: Its Activity is “Active”.

Question: And the IC50 (MGC-803)?
Answer: Its IC50 is 82 nM.

Question: And the Activity (KYSE-30 [5])?
Answer: Its Activity is 76.9767%.

Question: What about the Activity (KYSE-450 [6]) of the same compound?
Answer: The Activity was “Active”.

Question: What about the IC50 (KYSE-30 [7]) of the same compound?
Answer: Its IC50 is 69 nM.

Question: And the Activity (KYSE-450 [8])?
Answer: The Activity was “Dose-Dependent Effect”.

Question: And the inhibition (KYSE-30 [9])?
Answer: The inhibition was “Active”.

Question: What about the Activity (KYSE-450 [10]) of the same compound?
Answer: The Activity was “inactive”.

Question: What about the inhibition (Sus scrofa) of the same compound?
Answer: Its inhibition is “Active”.
